What all share (experiment): growth of human tumour cells (NCI), 48 h
In assay [1] the test system is OVCAR-3 ovarian.
Assay [2] has as its system TK-10 renal.
The subject of assay [3] is IGROV1 ovarian.
Assay [4] has as its system SK-MEL-28 melanoma.
The test system of assay [5] is HT29 colon.
The subject of assay [6] is OVCAR-5 ovarian.
The test system of assay [7] is SNB-19 CNS.
Assay [8] relates to A498 renal.
In assay [9] the test system is OVCAR-4 ovarian.
Assay [10] concerns HCT-15 colon.

Molecules are shown by their SMILES.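 Growth conditions: 96-well plates. Treatment: test compound, 48 hours, 5 concentrations. Analysis: linear interpolation between bracketing concentrations; unreached endpoints set to highest concentration. GI50 = concentration required for 50% inhibition of growth. TGI is the concentration that stops growth completely.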

Regarding `Cc1cn2c(=O)n(c1=O)Cc1ccccc1C2`, the GI50 in [1] is over 100 µM; in [2] it was over 100 µM; in assay [3] it was 41.7 µM; in assay [4], over 100 µM; in assay [5] it was over 100 µM; in [6], over 100 µM. Also, the GI50 was over 100 µM in assay [7], 35.1 µM in assay [8], over 100 µM in assay [9] and over 100000 nM in assay [10]. Besides, the TGI in [1], in assay [2], in assay [3], in [4], in assay [5] and in assay [6] was over 100 µM in each case. Moreover, the TGI in assay [7], in assay [8], in assay [9] and in [10] was over 100 µM each time.

Take `O=C(/C=C\c1ccc2ccccc2n1)c1cc(Cl)ccc1O`: the GI50 was 5.31 µM in assay [1]; 7.88 µM in assay [2]; 5.21 µM in assay [3]; 18.7 µM in [4]; 4.2 µM in [5]; 14.3 µM in assay [6]. The GI50 in [7] is 10.1 µM; in assay [8], 28.9 µM; in assay [9], 5.25 µM; in [10], 2430 nM. In addition, the TGI in assay [1] is 17.1 µM; in assay [2] it was 85.3 µM; in [3] it was 22.6 µM; in assay [4], 49.6 µM; in assay [5], 31.5 µM; in assay [6] it was 30.5 µM. The TGI was 24.5 µM in assay [7], over 100 µM in [8], 24.6 µM in assay [9] and 8.86 µM in assay [10].

With `CN(CCN(C)C(=O)CCOS(C)(=O)=O)C(=O)CCOS(C)(=O)=O`, the TGI in [1], in assay [2], in assay [3], in assay [4], in assay [5] and in assay [6] was over 100 µM each time. Besides, the TGI in assay [7], in assay [8], in [9] and in [10] was over 100 µM each time.

For `N=C(N)c1ccc(-c2ccc(-c3ccc(F)cc3)o2)o1`, the GI50 was 1.84 µM in assay [1]; 1.55 µM in assay [2]; 1.58 µM in assay [3]; 1.63 µM in [4]; 0.606 µM in assay [5]; 1.66 µM in assay [6]. Further, the GI50 in assay [7] is 1.73 µM; in [8] it was 1.9 µM; in assay [9] it was 1.62 µM; in assay [10] it was 631 nM. Also, the TGI in [1] amounted to 4.16 µM; in assay [2] it was 2.92 µM; in assay [3], 3.35 µM; in [4], 3.18 µM; in assay [5], 1.94 µM; in assay [6] it was 3.4 µM. Moreover, the TGI in assay [7] stood at 4.05 µM; in [8], 5.95 µM; in [9] it was 3.2 µM; in assay [10] it was 2.08 µM.

These data come from PubChem BioAssay (NCI).
